# Where two headings read alike, the source gives them in different places.
# Columns and labels:
# A375 = experiment: Single agent proliferation assay (CellTiter-Glo, 72 h); type: cell-based, human; settings: A375, 72 h
# Protocol: (§1) Cells were seeded in 96-well plates at the densities and media conditions indicated in Table 17 and allowed to adhere overnight prior to addition of compound or vehicle control. Compounds were prepared from DMSO stocks to give the desired final concentrations. The final DMSO concentration was constant at 0.1%. Test compounds were incubated with the cells for 72 h at 37° C., 5% CO2 in a humidified atmosphere. CellTiter-Glo® reagent (Promega, Madison, Wis.) was added according to manufacturer's instructions and luminescence detected using the BMG FLUOstar plate reader (BMG Labtech, Ortenberg, Germany). The average media only background value was deducted and the data analysed using a 4-parameter logistic equation in GraphPad Prism (GraphPad Software, La Jolla, Calif.).
# G-361 = experiment: as above; type: cell-based; settings: G-361, 72 h
# Protocol: as §1
# [1] = test system: MAPK signaling pathway in A375 and HCT116 cells; settings: Morris et al., 2013; cited from earlier work
# [2] = test system: melanoma xenograft model derived from biopsies obtained from a patient; experiment: Melanoma xenograft model derived from patient biopsies after progression on vemurafenib; type: in vivo; settings: model with acquired cross-resistance
# [3] = test system: A375 human melanoma xenograft; experiment: A375 in vivo study: tumor growth delay and regression responses; design: species or system athymic nude mice; settings: for MTV (n) D45: Day 45
# Protocol: Female athymic nude mice (Crl:NU(Ncr)-Foxn/^nu, Charles River) were nine weeks old with a body weight (BW) range of 17.5 to 26.2 grams on Day 1 of the study. The animals were fed ad libitum water (reverse osmosis, 1 ppm CI), and NIH 31 Modified and Irradiated Lab Diet® consisting of 18.0% crude protein, 5.0% crude fat, and 5.0% crude fiber. The mice were housed on irradiated Enrich-o'cobs™ Laboratory Animal Bedding in static microisolators on a 12-hour light cycle at 20-22° C. (68-72° F.) and 40-60% humidity. The recommendations of the Guide for Care and Use of Laboratory Animals with respect to restraint, husbandry, surgical procedures, feed and fluid regulation, and veterinary care were complied with.
# Tumor xenografts were initiated with A375 human melanomas by serial subcutaneous transplantation in athymic nude mice. On the day of tumor implant, each test mouse received a 1 mm^3 A375 fragment implanted subcutaneously in the right flank, and tumor growth was monitored as the average size approached the target range of 80 to 120 mm^3. Tumors were measured in two dimensions using calipers, and volume was calculated using the formula: […]
# Ten days after tumor implantation, designated as Day 1 of the study, the animals were sorted into nine groups (Groups 1-9) each consisting of fifteen mice and one group (Group 10) consisting of ten mice. Individual tumor volumes ranged from 75 to 144 mm^3 and group mean tumor volumes were 110 or 111 mm^3.
# On Day 1 of the study, mice were sorted into nine groups (Group 1-9) each consisting of fifteen mice and one group (Group 10) consisting of ten mice, and dosing was initiated according to the treatment plan summarized in Table 15 below. Each dose was given by oral gavage (p.o.) in a dosing volume of 10 mL/kg (0.2 mL per 20 grams of body weight), scaled to the body weight of each individual animal. The vehicle and dabrafenib doses were to be given once daily until study end (qd to end), whereas the BVD-523 doses were to be given twice daily until study end (bid to end). For bid dosing, dosing was initiated in the afternoon on Day 1, so that one dose was given on the first day (“first day 1 dose”).
# Due to the striking response to combination treatment, dosing in Groups 2-5 was stopped on Day 20 in order to monitor tumor re-growth. Dosing was to be re-initiated in a group when the mean tumor burden reached 1000 mm^3. By Day 42, the 1000 mm^3 mean tumor burden had not been reached in any of the combination groups. Dosing was re-initiated to permit post-final dose serum and tumor sampling for pharmacokinetic analyses. […] The final dosing schedules are shown below in Table 16.
# Tumors were measured using calipers twice per week, and each animal was euthanized when its tumor reached the pre-determined tumor volume endpoint of 2000 mm^3 or on the final day, whichever came first. Animals that exited the study for tumor volume endpoint were documented as euthanized for tumor progression (TP), with the date of euthanasia. The time to endpoint (TTE) for analysis was calculated for each mouse by the following equation:
# [formula] where TTE is expressed in days, endpoint volume is expressed in mm^3, b is the intercept, and m is the slope of the line obtained by linear regression of a log-transformed tumor growth data set. The data set consists of the first observation that exceeded the endpoint volume used in analysis and the three consecutive observations that immediately preceded the attainment of this endpoint volume. The calculated TTE is usually less than the TP date, the day on which the animal was euthanized for tumor size. […] Any animal classified as having died from NTR (non-treatment-related) causes due to accident (NTRa) or due to unknown etiology (NTRu) were excluded from TTE calculations (and all further analyses). Animals classified as TR (treatment-related) deaths or NTRm (non-treatment-related death due to metastasis) were assigned a TTE value equal to the day of death. […]
# [4] = test system: MAPK signaling pathway in A375 and HCT116 cells; experiment: Western blot analysis of MAPK signaling, cell cycle and apoptosis proteins; type: cell-based, human
# Protocol: Cells were allowed to adhere overnight prior to addition of the indicated amount of test compound (BVD-523) or vehicle control. Cells were treated for either 4 or 24 hours before isolation of whole-cell protein lysates, as specified below. Cells were harvested by trypsinisation, pelleted and snap frozen. Lysates were prepared with RIPA (Radio-Immunoprecipitation Assay) buffer, clarified by centrifugation and quantitated by bicinchoninic acid assay (BCA) assay. 20-50 μg of protein was resolved by SDS-PAGE electrophoresis, blotted onto PVDF membrane and probed using the antibodies detailed in Table 13 (for the 4-hour treatment) and Table 14 (for the 24-hour treatment) below.
# [5] = A375 in vivo study: toxicity (body weight, deaths, side effects)
# Source text: Animals were weighed daily on Days 1-5, then twice per week until completion of the study. […] Individual body weight loss was monitored as per protocol, and any animal that exceeded the limits for acceptable body weight loss was euthanized. Group mean body weight loss also was monitored as per protocol. Dosing was to be suspended in any group that exceeded the limits for acceptable mean body weight loss. If mean body weight recovered, then dosing was to be resumed in that group, but at a lower dosage or less frequent dosing schedule.
# Acceptable toxicity for the maximum tolerated dose (MTD) was defined as a group mean body-weight loss of less than 20% during the study and not more than 10% treatment-related (TR) deaths. […] A death was classified as non-treatment-related (NTR) if there was no evidence that death was related to treatment side effects. NTR deaths were further characterized based on cause of death. A death was classified as NTRa if it resulted from an accident or human error. […] A death was classified as NTRu if the cause of death was unknown and there was no available evidence of death related to treatment side effects, metastasis, accident or human error, although death due to treatment side effects cannot be excluded.
# A375 cells = experiment: Dose escalation study in A375 cells; type: cell-based, human; settings: after 2 months, cells exposed to agent alone
# Protocol: Single agent dose escalations were performed based on Little et al., 2011 and is outlined in FIG. 25. Cells were then allowed to grow until 70-90% confluence and split. […] Medium was refreshed every 3-4 days. When cells again reached about 40-60% confluence, the dose was escalated. In the event that the 40-60% window was missed, the cells were split again and dosed once they reached 40-60% confluence. Again, medium was refreshed every 3-4 days. The process was repeated as required (FIG. 25).
structure (smiles),measurement,setting,value
N#Cc1c(Oc2ccc(F)c(NC(=O)Cc3cccc(C(F)(F)F)c3)c2)ccc2nc(NC(=O)C3CC3)sc12 [TAK-632],IC50,A375,26 nM
same,IC50,G-361,164 nM
O=C(Nc1ccc2[nH]nc(-c3ccncc3)c2c1)[C@@H]1CCN(CC(=O)N2CCN(c3ccc(-c4ncccn4)cc3)CC2)C1 [SCH772984],Autophosphorylation of ERK,[1],inhibit autophosphorylation of ERK
same,IC50,"A375; Homo sapiens, A-375",32 nM
same,IC50,G-361; Homo sapiens,180 nM
CC(C)Nc1cc(-c2c[nH]c(C(=O)N[C@H](CO)c3cccc(Cl)c3)c2)c(Cl)cn1 [BVD-523],Anti-tumor response,[2],potent anti-tumor response
same,% TGD,[3]; G8: 50 mg/kg po bid to end,−7%
same,Median TTE,[3]; G8: 50 mg/kg po bid to end,8.6 days
same,PR (partial regressions),[3]; G8: 50 mg/kg po bid to end,0
same,MTV (n) D45,[3]; G8: 50 mg/kg po bid to end,0 (1) imd
same,% TGD,[3]; G9: 100 mg/kg po bid to end,101%
same,Median TTE,[3]; G9: 100 mg/kg po bid to end,18.5 days
same,PR (partial regressions),[3]; G9: 100 mg/kg po bid to end,0
same,T-C,[3]; G9: 100 mg/kg po bid to end,9.3 days
same,MTV (n) D45,[3]; G9: 100 mg/kg po bid to end,2 (2) imd
same,PARP protein cleavage and increased apoptosis,[4]; A375 cell background,not noted
same,Autophosphorylation of ERK,[4]; FIG. 18,allows for the autophosphorylation of ERK while still inhibiting ERK
same,DUSP6 total protein levels,[4]; prolonged treatment,greatly reduced
same,cyclin-D1 protein levels,[4]; prolonged treatment,greatly reduced
same,total levels of Bim-EL,[4]; prolonged treatment,increase
same,IC50,"A375; Homo sapiens, A-375",87 nM
same,Deaths NTR,[5]; G8: 50 mg/kg po bid to end,0
same,Deaths TR,[5]; G8: 50 mg/kg po bid to end,0
same,Mean BW Nadir,"[5]; G8: 50 mg/kg po bid to end, nadir on Day 2",−0.1% Day 2
same,Deaths NTR,[5]; G9: 100 mg/kg po bid to end,0
same,Deaths TR,[5]; G9: 100 mg/kg po bid to end,0
same,Increase in drug exposure beyond the IC50 that cells withstand,A375 cells,less than 10 fold
same,IC50,G-361; Homo sapiens,344 nM
Cn1nnc2c(C(N)=O)ncn2c1=O [Temozolomide],% TGD,[3]; G10: 150 mg/kg po qd × 5,14%
same,CR (complete regressions),[3]; G10: 150 mg/kg po qd × 5,0
same,Median TTE,[3]; G10: 150 mg/kg po qd × 5,10.5 days
same,PR (partial regressions),[3]; G10: 150 mg/kg po qd × 5,0
same,T-C,[3]; G10: 150 mg/kg po qd × 5,1.3 days
same,TFS (tumor free survivors),[3]; G10: 150 mg/kg po qd × 5,0
same,Deaths NTR,[5]; G10: 150 mg/kg po qd × 5,0
same,Deaths TR,[5]; G10: 150 mg/kg po qd × 5,0
same,Mean BW Nadir,"[5]; G10: 150 mg/kg po qd × 5, nadir on Day 5",−1.6% Day 5

# From patent US10668055B2, “Cancer treatment using combinations of ERK and RAF inhibitors” (BIOMED VALLEY DISCOVERIES, INC., priority 2013, dated 2020)
